The record followed here is US7608416B2, “Targeting mPGES-1 as a treatment for inflammation which avoids cardiovascular risk” (The Trustees of the University of Pennsylvania, priority 2004, dated 2009).

Series [1] relates to mice. The experiment in a line: Tail cuff blood pressure measurement. Type of series: in vivo, mouse. How it is done:
(i) Tail Cuff measurement: Resting systolic blood pressure was measured in conscious, 3-4 month old mice using a computerized, noninvasive tail-cuff system, BP-2000 Blood Pressure Analysis System™ (Visitech Systems, Inc. Apex, N.C.). […] Mice were adapted to the system for 14 days by taking blood pressure measurements during 25 minute long sessions. The sessions were held once daily between 15:00 and 18:00. After the adaptation period, blood pressure was recorded daily for 3 consecutive days in the same way. Data were collected and analyzed using updated BP 2000 Analysis Software.

Series [2] addresses T1, thromboxane receptor (TP) (Mus musculus, UniProt P30987).
T1 construct: they received a rapid intravenous injection of U46619 (0.2 mg/kg in PBS, Cayman Chemical) via the tail vein; from tissue; host or cells: whole animal: WT, PGHS-2 KO and PGHS-2 Y385F mice, in vivo
T1 sequence (P30987 1-341): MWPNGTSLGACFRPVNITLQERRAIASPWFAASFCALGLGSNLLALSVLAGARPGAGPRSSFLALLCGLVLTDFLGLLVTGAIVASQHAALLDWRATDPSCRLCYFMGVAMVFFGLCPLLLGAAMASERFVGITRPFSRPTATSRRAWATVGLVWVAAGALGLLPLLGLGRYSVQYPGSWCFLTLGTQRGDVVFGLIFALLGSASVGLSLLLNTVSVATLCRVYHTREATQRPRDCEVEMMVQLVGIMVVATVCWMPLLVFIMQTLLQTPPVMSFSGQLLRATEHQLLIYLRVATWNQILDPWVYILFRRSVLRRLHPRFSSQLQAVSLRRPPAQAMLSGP
The experiment in a line: U46619 induced sudden death. Type of series: in vivo. The note with it: PGHS-2 KO and PGHS-2 Y385F mice compared to WT, 0.2 mg/kg intravenous, within 15 min. Here is the method: (iii) U46619 induced sudden death: This model is based on a model established previously (Momi et al., 2000, Eur. J. Pharmacol. 397: 177-85). Briefly, mice (3-4 months old) were anesthetized with sodium pentobarbital. Then they received a rapid intravenous injection of U46619 (0.2 mg/kg in PBS, Cayman Chemical) via the tail vein. Heart rate was monitored for 15 minutes prior to sacrifice.

The subject of series [3] is mice. The experiment in a line: Collagen induced platelet consumption. Type of series: in vivo, mouse. The note with it: WTs, PGHS-2 Y385F and PGHS-2 KO mice, 2 min after i.v. collagen plus epinephrine. Here is the method: (ii) Collagen induced platelet consumption: Briefly, mice (8 weeks old) were weighed and anesthetized with sodium pentobarbital (80 mg/kg). 100 μl of a mixture of collagen (250 μg/ml) and epinephrine (15 μg/ml) in 0.9% NaCl was injected rapidly into the tail vein. […] After thorough mixing, platelets were counted by automated multispecies hematology analyzers (CDC Technologies), as previously described (Gresele et al, 1990, Thromb. Haemost. 64:80-6).

Series [4] relates to PGI2 biosynthesis (urinary 2,3-dinor 6-keto PGF1α, PGIM). The experiment in a line: Urinary PGIM (2,3-dinor 6-keto PGF1α) excretion, 24 h urine, GC/MS. Type of series: in vivo, mouse. The note with it: DFU, WT male mice, before vs after administration (FIG. 2). Here is the method: Eicosanoid analyses: Urinary TxM and PGIM were measured in twenty four hour urines collected in metabolic cages. After extraction and purification by thin layer chromatography, they were analyzed by a stable isotope dilution reverse phase (C18) HPLC/tandem mass spectrometry assay and gas chromatography/mass spectrometry, respectively, as previously described (Egan et al., 2005, Circulation 111: 334-242).
The relative contribution of the PGHS enzymes, PGHS-1 and PGHS-2, to the biosynthesis of PGI2 and TxA2 was assessed by measuring urinary 2,3-dinor 6-keto PGF1α (PGIM) and 2,3-dinor TxB2 (TxM) respectively. […] PGIM and TxM was also assessed in PGHS-1 knockdown (KD) mice. […] Traditional NSAIDS and NSAIDs selective for PGHS-2 inhibit COX activity, not POX activity. Tyr385 in PGHS (ovine PGH-1 numbering) is critical for cyclooxygenase (COX) catalysis, but is uninvolved in peroxidase (POX) activity. PGIM and TxM was also assessed in PGHS-2^Y385F mice, in which the cyclooxygenase, but not the peroxidase (POX) function, of PGHS-2 is inactivated, thereby mimicking the effect of a selective PGHS-2 inhibitor (Yu et al., 2005a, J. Clin. Invest. (Submitted manuscript)).

The subject of series [5] is mice. The note with it: mouse, in vivo.
Description: (i) Photochemical vascular injury: This model is an adaptation of one previously described method (Yu et al., 2005, J. Clin. Invest. 115:986-95). Briefly, mice were anesthetized with sodium pentobarbital (80 mg/kg, intraperitoneally). The left common carotid artery was isolated and a Doppler flow probe (Model 0.5 VB, Transonic Systems Co., NY) was applied. The probe was connected to a flowmeter (Transonic Model T105) and interpreted with a computerized data acquisition program (Powerlab, AD Instruments, CO). Just before i.v. injection of Rose Bengal (50 mg/kg body weight, Fisher Scientific, NJ), a 1.5-mW green light laser (540 nm) (Melles Griot Inc, Carlsbad, Calif.) was applied to the desired site of injury at a distance of 5 cm from the carotid artery. Blood flow was monitored up to 120 minutes after injection or until stable occlusion occurred. Stable occlusion was defined as a blood flow of 0 ml/min for 3 minutes. To confirm occlusive thrombosis, carotid arterial segments subjected to injury were excised and embedded in paraffin. Sections were then stained with hematoxylin and eosin.
The test system of series [6] is PGE2 biosynthesis (urinary PGEM). The experiment in a line: Urinary PGEM by LC/MS/MS. Type of series: in vivo, mouse. The note with it: DFU, WT male mice, vs pre-administration value (FIG. 11). How it is done: Urinary PGEM was measured by LC/MS/MS as follows: First, 10 ng of hexadeuterated PGEM (9,15-dioxo-11α-hydroxy-2,3,4,5-tetranor-prostan-1,20-dioic-17,17,18,18,19,19-d6 acid; Cayman Chemical Co., Ann Arbor, Mich.) was added as an internal standard to 0.1 ml of mouse urine. Next, 50 μL of 1 g/ml methoxyamine HCl was added, and the sample was mixed and allowed to stand at room temperature for 15 minutes. The sample was then diluted to 1.0 ml with water and loaded on a StrataX solid phase extraction (SPE) cartridge (Phenomenex, Torrance, Calif.). The SPE was eluted with 1.0 mL of 5% acetonitrile in ethyl acetate, dried, dissolved in 200 μL 10% acetonitrile in water, and injected for LC/MS/MS analysis. Transitions monitored were m/z 385→336 for the endogenous PGE-M and 391→342 for the internal standard.
PGE2 biosynthesis was assessed in mice having inhibited or deleted PGHS-1 or PGHS-2 function using a mass spectrometric assay (FIG. 9) for the major PGE metabolite, 11α-hydroxy-9,15-dioxo-2,3,4,5-tetranor-prostane-1,20-dioic acid (PGEM). […] Thus, unlike PGI2 biosynthesis, both PGHS-1 and PGHS-2 each contribute substantially to PGE2 biosynthesis.

In series [7] the test system is IP (PGI2 receptor). The series can be described thus: Direct measurement of blood pressure (MAP) after i.v. cicaprost. Type of series: in vivo, mouse. The note with it: IP-/- mice, 1 μg/kg intravenously. Here is the method:
(§1) (iii) Direct measurement of blood pressure: Mice were anesthetized (ketamine 100 mg/kg, acepromazine 5 mg/kg) and placed on a temperature-controlled panel. The right internal jugular vein and left carotid artery were cannulated with PE-10 tubing. The arterial catheter was connected to a Capto SP844 pressure transducer (Capto, Horten, Norway), and blood pressure (BP) was monitored continuously with a Powerlab/8SP system (AD Instruments Inc, Colorado Springs, Colo.), as previously described (Hui et al., 2004, Circulation 110: 3360-6; Rocca et al., 2000, Nat. Med. 6: 219-21). Blood pressure and heart rate were continuously monitored for 20-40 min until stable values were obtained. After the equilibration period and the baseline BP was recorded, mice were injected via the right internal jugular vein with cicaprost (1 μg/kg in 4 ml/kg saline) as a bolus. The same volume of saline was injected before cicaprost administration to exclude volume-mediated BP changes. The BP was continuously recorded until it returned to pretreatment baseline.
(§2) The cardiovascular consequences of deleting just one copy of the IP on cardiovascular function in vivo was studied. Mean arterial pressure (MAP) was measured directly via carotid artery catheterization in anesthetized WT, IP^+/−, and IP^−/− littermates on C57BL/6 genetic background, following administration of the IP agonist cicaprost (Cica) 1 μg/kg intravenously (FIG. 3). The maximal decline evoked by Cica in MAP was 36±3.5% from pretreatment baseline in WT, 24%±3.3% in IP+/− and 0% in IP−/− littermates(F=42, n=5; P<0.0001). […] A similar effect of IP deletion was seen on the inhibitory effect of 10 nM cicaprost on platelet aggregation induced by collagen 2 μg/ml ex vivo (FIG. 4). […] The impact of IP deletion on the time to thrombotic carotid arterial occlusion, induced by green laser activation of Rose Bengal, which causes free radical catalyzed vascular injury, was also gene-dose dependent (FIG. 5, left panel). The time to occlusion fell from 66.3±5.1 min in WTs to […] in IP^+/− to 29.7±7.6 min in IP^−/− mice (F=6.5, n=9-10, P<0.0055). Inhibition of PGHS-2 by DFU also accelerated thrombogenesis, from 59.4±10.4 min to 33.4±4.3 min (n=7-8, P<0.05; FIG. 5, right panel). Thus, the mean impact of DFU on time to occlusion (56.2% of WT value) was intermediate between that of IP^+/− ([…]) and IP^−/− (45.5%) mice.

Series [8] concerns the target T2, IP (PGI2 receptor) (Mus musculus, UniProt P43252).
T2 construct: anesthetized WT, IP^+/−, and IP^−/− littermates on C57BL/6 genetic background, following administration of the IP agonist cicaprost; from tissue; host or cells: whole animal: anesthetized WT, IP+/- and IP-/- mice, C57BL/6 background, in vivo
The description is as above. Type of series: in vivo. The note with it: 1 μg/kg intravenously; for Maximal decline in MAP from pretreatment baseline: C57BL/6, anesthetized. Here is the method:
as §1, §2

Series [9] has as its system platelet aggregation induced by collagen. The series can be described thus: Whole blood platelet aggregation assay, collagen-induced, ex vivo. Type of series: cell-based, mouse. The note with it: 10 nM, collagen 2 μg/ml. Here is the method:
250 μl blood was mixed with 750 μl of sodium chloride at 37° C. Platelet aggregation was performed using a 500 Whole Blood Lumi-Aggregometion System (Chrono-Log Corp, Havertown, Pa.) as previously described ([…] et al., 1983, Thromb. Haemost. 50: 852-6; Booth et al., 1998, Can. J. Physiol. Pharmacol. 76: 811-3; Emery et al., 1995, Arterioscler. Thromb. Vasc. Biol. 15: 748-53). Samples were pretreated with or without 10 nM cicaprost for 1 minute, and aggregation was initiated by addition of 2 μg/ml collagen.

Where [10] appears, read: 3 month old mice, mixed C57BL/6×129/sv, regular chow.

T2 sequence (P43252 1-412): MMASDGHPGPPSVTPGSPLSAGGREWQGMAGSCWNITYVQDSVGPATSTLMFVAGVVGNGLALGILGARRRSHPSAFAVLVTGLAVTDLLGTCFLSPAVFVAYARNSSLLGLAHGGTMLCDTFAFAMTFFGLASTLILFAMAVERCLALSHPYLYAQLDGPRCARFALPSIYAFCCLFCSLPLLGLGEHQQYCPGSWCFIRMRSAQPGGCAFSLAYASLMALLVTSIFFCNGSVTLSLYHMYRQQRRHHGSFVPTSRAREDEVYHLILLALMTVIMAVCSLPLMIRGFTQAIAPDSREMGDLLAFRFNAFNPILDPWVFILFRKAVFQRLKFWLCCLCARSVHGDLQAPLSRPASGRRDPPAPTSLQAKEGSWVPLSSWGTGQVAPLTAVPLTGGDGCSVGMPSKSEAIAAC

On to `Cc1ccc(-c2cc(C(F)(F)F)nn2-c2ccc(S(N)(=O)=O)cc2)cc1` [celecoxib], for which, in series [1] (setting [10]), the “Diastolic blood pressure compared to WTs” value was “elevated significantly” and the “Systolic blood pressure compared to WTs” value is given as “elevated significantly”. Moreover, the “Hypertensive effect in PGHS-1 KDs compared to WTs” value in series [1] (PGHS-1 KD mice) is “attenuated”.

For the molecule `CCCCC[C@H](O)/C=C/[C@@H]1[C@@H](C/C=C\CCCC(=O)O)[C@H]2CO[C@@H]1C2` [U46619], the “Frequency of sudden death” value in series [2] was “augmented”.

As for collagen, in series [3], the Circulating platelet count entry is “dose-dependent decrese in platelets”.

Regarding `CC1(C)OC(=O)C(c2cccc(F)c2)=C1c1ccc(S(C)(=O)=O)cc1` [DFU, 5,5-dimethyl-3-(3-fluorophenyl)-4-(4-methylsulphonyl)phenyl-2(5H)-furanone], the “Urinary 2,3-dinor 6-keto PGF1α (PGIM)” value in series [4] was “depressed significantly”. In addition, the “Mean impact on time to occlusion, % of WT value” in series [5] was 56.2%. For the same molecule, in series [6], the “Urinary PGEM” value is given as “depressed PGEM significantly”.

Take `CCC#CC[C@H](C)[C@H](O)C#C[C@@H]1[C@H]2C/C(=C/COCC(=O)O)C[C@H]2C[C@H]1O` [cicaprost]: the results for the “Duration of the depressor response” value in series [7], in series [8] (IP+/- mice) and in [8] (WT mice) were “no change in MAP”, 5.3 ± 1.1 min and 10.8 ± 2.5 min, respectively. Also, the “Maximal decline in MAP from pretreatment baseline” value in series [7] (C57BL/6, anesthetized) was 0%; in series [8] (IP+/- mice), 24%±3.3; in [8] (WT mice), 36±3.5%. Also, in [9] (IP-/- mice), the “Inhibition of platelet aggregation” value is recorded as “not achieved”. In addition, in series [9] (Mus musculus, Platelet, IP+/- mice, read-out: Inhibition of platelet aggregation, % of the maximal inhibition observed in WTs), the inhibition at 0.01 µM is 86.7%.

For orientation: inhibition means how much of the control response was suppressed.
